Molecules are shown by their SMILES. Like-named read-outs stand apart in the source and are kept apart here.

Series [1] has as its target T1, rat α2B (RNG gene) receptor (Rattus norvegicus, UniProt P19328).
T1 construct: expressed in transfected cells; host or cells: NIH-3T3 cells, calcium phosphate cotransfection
T1 sequence (P19328 1-453): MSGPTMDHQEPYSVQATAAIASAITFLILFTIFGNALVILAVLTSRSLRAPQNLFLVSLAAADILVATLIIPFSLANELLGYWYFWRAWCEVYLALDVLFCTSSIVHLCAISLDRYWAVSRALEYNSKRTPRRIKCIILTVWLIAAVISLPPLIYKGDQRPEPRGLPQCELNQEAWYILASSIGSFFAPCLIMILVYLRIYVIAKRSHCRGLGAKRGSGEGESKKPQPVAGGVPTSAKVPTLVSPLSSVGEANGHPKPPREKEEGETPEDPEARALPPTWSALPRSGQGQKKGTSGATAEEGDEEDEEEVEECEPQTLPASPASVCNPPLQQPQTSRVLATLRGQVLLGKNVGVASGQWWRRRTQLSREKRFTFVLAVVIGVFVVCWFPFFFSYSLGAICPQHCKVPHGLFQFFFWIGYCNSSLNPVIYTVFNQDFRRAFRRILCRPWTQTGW
The series is described as follows: RSAT (Receptor Selection and Amplification Technology) assay, alpha 2B. Conditions: ratio of maximal effect to that of standard full agonist oxymetazoline. It is filed as cell-based. An excerpt:
This preferential activity can be determined in a variety of functional assays such as Cyclic AMP Production, Shimizu et al, J. Neurochem. […] In the study below, the RSAT assay on cells that have been transiently transfected with the human α2A (c10 gene), rat α2B (RNG gene) and human α2C (c4 gene) receptors was used.
The assay measures a receptor-mediated loss of contact inhibition that results in selective proliferation of receptor-containing cells in a mixed population of confluent cells. The increase in cell number is assessed with an appropriate transfected marker gene such as b-galactosidase, the activity of which can be easily measured in a 96-well format. Receptors that activate the G protein, Gq, elicit this response. Alpha2 receptors, which normally couple to Gi, activate the RSAT response when coexpressed with a hybrid Gq protein that has a Gi receptor recognition domain, called Gq/i5^2.
NIH-3T3 cells are plated at a density of 2×10^6 cells in 15 cm dishes and maintained in Dulbecco's modified Eagle's medium supplemented with 10% calf serum. One day later, cells are cotransfected by calcium phosphate precipitation with mammalian expression plasmids encoding p-SV-b-galactosidase (5-10 mg), receptor (1-2 mg) and G protein (1-2 mg). 40 mg salmon sperm DNA may also be included in the transfection mixture. Fresh media is added on the following day and 1-2 days later, cells are harvested and frozen in 50 assay aliquots. Cells are thawed and 100 ml added to […] aliquots of various concentrations of drugs in triplicate in 96-well dishes. Incubations continue 72-96 hr at 37°. After washing with phosphate-buffered saline, b-galactosidase enzyme activity is determined by adding 200 ml of the chromogenic substrate (consisting of 3.5 mM o-nitrophenyl-b-D-galactopyranoside and 0.5% nonidet P-40 in phosphate buffered saline), incubating overnight at 30° and measuring optical density at 420 nm. The absorbence is a measure of enzyme activity, which depends on cell number and reflects a receptor-mediated cell proliferation. The EC50 and maximal effect of each drug at each alpha2 receptor is determined. The efficacy or intrinsic activity is calculated as a ratio of the maximal effect of the drug to the maximal effect of a standard full agonist for each receptor subtype.

Series [2] deals with cynomolgus monkeys with sustained elevated IOP. Kind of series: IOP lowering in conscious monkeys, eyes made hypertensive by argon laser photocoagulation. Type of series: in vivo, cynomolgus monkey. The settings on record: Macaca fascicularis, topical, single 50 μl eye drop, up to 6 hours, read-out: Maximum % Decrease From Pretreatment Levels Hypertensive Eye (IOP); for inhibition in vivo at 0.3 %: ocular dose 0.3%; for inhibition in vivo at 1 %: ocular dose 1%. An excerpt: Measurements of IOP were made in fully conscious female cynomolgus monkeys weighing 3-4 kg with sustained elevated IOP that was produced in the right eye by argon laser photocoagulation of the trabecular meshwork. Animals were usable for experiments 2 months following surgery. During the experiments, monkeys sat in specially designed chairs (Primate Products, San Francisco), and were fed orange juice and fruit as needed. A 30R model Digilab pneumatonometer (Alcon, Tex.) was used to measure IOP.
Twenty five μl of an anesthetic (proparacaine) was topically applied to each monkey before IOP measurements to minimize ocular discomfort due to tonometry. Two baseline measurements were made prior to instillation of the drugs, followed by periodic measurements up to 6 hours post-instillation. The test compounds were administered unilaterally as a single 50 μl eye drop; the contralateral eyes received an equal volume of saline.

For series [3], the system named is conscious cynomolgus monkeys. The series is described as follows: Sedation score during the IOP experiments. It is filed as in vivo, cynomolgus monkey. Details: key to Sedation (0-4): 0=alert, typical vocalization, movement, etc.; 1=calm, less movement; 2=slightly sedated, some vocalization, responsive to stimulation; 3=sedated, no vocalization, some response to stimulation; 4=asleep. As to the method: At the same time, sedation was measured and assessed according to the following score: 0=alert, typical vocalization, movement, etc.; 1=calm, less movement; 2=slightly sedated, some vocalization, responsive to stimulation; 3=sedated, no vocalization, some response to stimulation; 4=asleep.

In series [4] the test system is conscious cynomolgus monkeys. Kind of series: Cardiovascular side effects (blood pressure, heart rate) after i.v. administration. Type of series: in vivo, cynomolgus monkey. Conditions: up to 6 hours, + with * = increase from base levels. An excerpt: Cardiovascular measurements were made in a different group of monkeys using a BP 100S automated sphygmomanometer (Nippon Colin,. Japan).

Regarding `CN1CCOc2ccc(N=C3NCCN3)cc21` [Example E-1, imidazolidin-2-ylidene-(4-methyl-3,4-dihydro-2H-benzo[1,4]oxazin-6-yl) amine], in series [1], the “Intrinsic Activity Relative to Oxymetazoline, Alpha 2B” value turned out to be 0.83. The inhibition in vivo at 0.3 % in series [2] (6 h) was 25 ± 4%. In addition, the inhibition in vivo at 1 % in series [2] (6 h) was 27 ± 3%. In addition, the “Sedation (0-4)” value in series [3] (ocular dose 0.3%) and in series [3] (ocular dose 1%) was 0 in each case. In addition, the results for the “Maximum % Decrease From Pretreatment Levels, Heart Rate” value in series [4] (i.v. 17 μg/kg), in series [4] (i.v. 50 μg/kg) and in series [4] (i.v. 167 μg/kg) were 11 ± 4%, 14 ± 5% and 11 ± 5%, respectively. The “Maximum % Decrease From Pretreatment Levels, Mean Arterial Blood Pressure” value in series [4] (i.v. 17 μg/kg) is 7 ± 4%; in series [4] (i.v. 50 μg/kg) it was 7 ± 2%; in series [4] (i.v. 167 μg/kg), 9 ± 4%.

`c1ccc(Cc2c[nH]cn2)cc1` [Example C-8, 4(5)-benzyl-1H-imidazole]: in series [1], the “Intrinsic Activity Relative to Oxymetazoline, Alpha 2B” value came to 0.9. Further, the inhibition in vivo at 1 % in series [2] turned out to be 31.2 ± 3.3%. The “Sedation (0-4)” value in series [3] (ocular dose 1%) worked out at 0. Further, in series [4] (i.v. 500 μg/kg), the “Maximum % Decrease From Pretreatment Levels, Heart Rate” value worked out at 16.6 ± 1.9% and the “Maximum % Decrease From Pretreatment Levels, Mean Arterial Blood Pressure” value is 5.5 ± 2.7%.

For the compound `Cc1ccc(Cc2c[nH]cn2)s1` [Example C-3, 4(5)-(5-methylthiophen-2-ylmethyl)-1H-imidazole], the “Intrinsic Activity Relative to Oxymetazoline, Alpha 2B” value in series [1] was found to be 0.88. Besides, in series [2], the inhibition in vivo at 0.3 % stood at 20.6 ± 4.8% and the inhibition in vivo at 1 % came out at 25 ± 6.4%. Besides, the “Sedation (0-4)” value in series [3] (ocular dose 0.3%) came to 0. Moreover, the “Sedation (0-4)” value in series [3] (ocular dose 1%) was 0. Moreover, in series [4] (i.v. 500 μg/kg), the “Maximum % Decrease From Pretreatment Levels, Heart Rate” value was determined as 10.6 ± 3.4% and the “Maximum % Decrease From Pretreatment Levels, Mean Arterial Blood Pressure” value worked out at 2.3 ± 2.7%.

Regarding `c1ccc2c(c1)CC[C@H](Cc1c[nH]cn1)C2` [Example J-2, (S)-4(5)-(1,2,3,4-tetrahydronaphthalen-2-ylmethyl)-1H-imidazole], in series [1], the “Intrinsic Activity Relative to Oxymetazoline, Alpha 2B” value was 0.8. Also, in series [2] (6 h, ocular dose 0.03%), the inhibition in vivo at 0.03 % turned out to be 12.4 ± 3.7%. Further, the “Sedation (0-4)” value in series [3] (ocular dose 0.03%) and in series [3] (ocular dose 0.3%) was 0 each time. Besides, in series [4] (i.v. 500 μg/kg), the “Maximum % Decrease From Pretreatment Levels, Heart Rate” value turned out to be 6.4 ± 3.3%. Further, the “Maximum % Decrease From Pretreatment Levels, Mean Arterial Blood Pressure” value in series [4] (i.v. 500 μg/kg) is reported as “+0.6 ± 3.1* %”.

`c1nc(CC2CCCCC2)c[nH]1` [Example J-1, 4(5)-cyclohexylmethyl-1H-imidazole]: in series [1], the “Intrinsic Activity Relative to Oxymetazoline, Alpha 2B” value was 0.83. Further, the inhibition in vivo at 1 % in series [2] (6 h) was found to be 26 ± 5%. For the same compound, in series [2] (6 h, ocular dose 3%), the inhibition in vivo at 3 % was 33 ± 3%. Moreover, the “Sedation (0-4)” value in series [3] (ocular dose 1%) and in series [3] (ocular dose 3%) was 0 in each case. Moreover, the “Maximum % Decrease From Pretreatment Levels, Heart Rate” value is listed as 13 ± 4% in series [4] (i.v. 17 μg/kg), 6 ± 2% in series [4] (i.v. 50 μg/kg), 3 ± 3% in series [4] (i.v. 167 μg/kg) and 7 ± 4% in series [4] (i.v. 500 μg/kg). Also, the “Maximum % Decrease From Pretreatment Levels, Mean Arterial Blood Pressure” value in series [4] (i.v. 17 μg/kg) stood at 7 ± 5.3%; in series [4] (i.v. 50 μg/kg) it was 4 ± 2%; in series [4] (i.v. 167 μg/kg), 7 ± 5%; in series [4] (i.v. 500 μg/kg), 13 ± 3%.

`c1ccc2c(c1)CC(Cc1c[nH]cn1)CO2` (stereo not shown) [Example B-2d, 4(5)-chroman-3-ylmethyl-1H-imidazole]: in series [1], the “Intrinsic Activity Relative to Oxymetazoline, Alpha 2B” value is given as 0.6. The inhibition in vivo at 0.1 % in series [2] (6 h, ocular dose 0.1%) came out at 22 ± 4.6%. Further, in series [2] (6 h), the inhibition in vivo at 0.3 % came to 17 ± 4.2% and the inhibition in vivo at 1 % turned out to be 18.1 ± 5.2%. Also, the “Sedation (0-4)” value in series [3] (ocular dose 0.1%) worked out at 0. The “Sedation (0-4)” value in series [3] (ocular dose 0.3%) turned out to be 0. Moreover, the “Sedation (0-4)” value in series [3] (ocular dose 1%) came out at 0. In addition, in series [4] (i.v. 500 μg/kg), the “Maximum % Decrease From Pretreatment Levels, Heart Rate” value was “+15.5 ± 3.4* %” and the “Maximum % Decrease From Pretreatment Levels, Mean Arterial Blood Pressure” value was “+8.9 ± 3.4* %”.

Consider `Cl.c1ccc2c(c1)CC(Cc1c[nH]cn1)CS2` (stereo not shown) [Example B-6, 4(5)-thiochrom-3-ylmethyl-1H-imidazole, hydrogen chloride salt], for which the “Intrinsic Activity Relative to Oxymetazoline, Alpha 2B” value in series [1] turned out to be 0.35. In series [2] (6 h), the inhibition in vivo at 0.3 % came out at 13.8 ± 2.4% and the inhibition in vivo at 1 % amounted to 22.1 ± 6.3%. Besides, the “Sedation (0-4)” value in series [3] (ocular dose 0.3%) was determined as 0. The “Sedation (0-4)” value in series [3] (ocular dose 1%) is listed as 0.

As to `c1ccc(C2C3CCC(C3)C2/N=C2/NCCO2)cc1` [Example D-1, oxazolidin-2-ylidene-(3-phenylbicyclo[2.2.1]hept-2-yl) amine], in series [1], the “Intrinsic Activity Relative to Oxymetazoline, Alpha 2B” value stood at 0.47. Further, the inhibition in vivo at 1 % in series [2] was found to be 25.6 ± 3.9%. Besides, the “Sedation (0-4)” value in series [3] (ocular dose 1%) was 0.

Consider `O=C1c2ccccc2OCC1Cc1c[nH]cn1` (stereo not shown) [Example B-2b, 3-(1H-imidazol-4(5)-ylmethyl)chroman-4-one], for which the “Intrinsic Activity Relative to Oxymetazoline, Alpha 2B” value in series [1] was 0.77. Besides, in series [4] (i.v. 500 μg/kg), the “Maximum % Decrease From Pretreatment Levels, Heart Rate” value amounted to 6.4 ± 3.6% and the “Maximum % Decrease From Pretreatment Levels, Mean Arterial Blood Pressure” value turned out to be 5.7 ± 1.4%.

Consider `c1ccc2c(c1)CC[C@@H](Cc1c[nH]cn1)C2` [Example J-3, (R)-4(5)-(1,2,3,4-tetrahydronaphthalen-2-ylmethyl)-1H-imidazole], for which, in series [1], the “Intrinsic Activity Relative to Oxymetazoline, Alpha 2B” value came to 1. The “Sedation (0-4)” value in series [3] (ocular dose 0.03%) stood at 0. Besides, the “Sedation (0-4)” value in series [3] (ocular dose 0.3%) is given as 0. Moreover, in series [4] (i.v. 500 μg/kg), the “Maximum % Decrease From Pretreatment Levels, Heart Rate” value is recorded as “+10.6 ± 6.0* %” and the “Maximum % Decrease From Pretreatment Levels, Mean Arterial Blood Pressure” value is “+1.0 ± 2.1* %”.

Turning to `c1coc(Cc2c[nH]cn2)c1` [Example C-5, 4(5)-furan-2-ylmethyl-1H-imidazole], the “Intrinsic Activity Relative to Oxymetazoline, Alpha 2B” value in series [1] turned out to be 1.1. In addition, in series [4] (i.v. 500 μg/kg), the “Maximum % Decrease From Pretreatment Levels, Heart Rate” value came to 7.1 ± 3.9% and the “Maximum % Decrease From Pretreatment Levels, Mean Arterial Blood Pressure” value was determined as 3.9 ± 2.8%.

These data come from patent US6841684B2, “Imidiazoles having reduced side effects” (Allergan, Inc., priority 1997, dated 2005).
